Results: publication PMC7725506, “Functional Diversification of SRSF Protein Kinase to Control Ubiquitin-Dependent Neurodevelopmental Signaling” (Developmental Cell, 2020)

Columns and labels:
[1] = test system: Foxp1 exon 16-16b alternative splicing switch; assay: Foxp1 exon 16-16b incorporation in mESCs by quantitative RT-PCR; assay type: cell-based, mouse; conditions: 1 μM, 8 h
Protocol: SRSF phosphorylation, SRPK1, SRPK2, and ERK1/2 levels were determined by immunoblotting. Expected positions of SRSFs that are not detected are shown in gray. Quantification of SRSF phosphorylation (Right). Data represented as mean ± SEM (n = 4). […] Neuro 2a is a control for exon 16b exclusion in differentiated cells (Bottom). Data represented as mean ± SEM (n = 3). […] Exon 16 inclusion: (^∗∗∗∗) p < 0.0001, Exon 16b inclusion: (^∗) p = 0.0164, p = 0.0485, and p = 0.0489 (left to right). Ratio exon 16b/16: (^∗∗∗∗) p < 0.0001, (^∗∗∗) p = 0.0003. (C) SRPK substrates predicted using ScanProsite and grouped according to UniProt functions. (D) RNF12 phosphorylation sites detected by mass-spectrometry. LZL, leucine-zipper like; NLS, nuclear localization signal; NES, nuclear export signal; RING, RING E3 ubiquitin ligase catalytic domain. (E) CMGC family kinase copy numbers in mESCs determined by quantitative proteomics and represented using Kinoviewer. (F) CMGC kinase (200 mU) phosphorylation of the RNF12 SR-motif in vitro was determined by immunoblotting for RNF12 phospho-Ser214 and total RNF12. […] Normalized RNF12 Ser214 phosphorylation is shown below. Data represented as mean ± SEM (n = 3). […] RNF12 SR-motif phosphorylation was analyzed by immunoblotting for RNF12 phospho-Ser214 and RNF12. SRPK1 and SRPK2 levels are shown as a loading control, Related to Figure S1; Tables S1 and S2.
Total RNA extraction and reverse transcription was performed as described. Quantitative PCR reactions using SsoFast EvaGreen Supermix (Bio-Rad) were performed in a CFX384 real time PCR system (Bio-Rad). Relative RNA expression was calculated through the ΔΔCt method and normalised to Gapdh expression. Data was analysed in Excel (Microsoft) and statistical analysis performed in GraphPad Prism v7.0c software (GraphPad Software Inc.).

RNF12 SR-motif = RNF12 SR-motif phosphorylation in mESCs by phos-tag immunoblotting; assay type: cell-based, mouse; conditions: 4 h
Excerpt: RNF12 4xSA = S212A/S214A/S227A/S229A. (B) Rlim^−^/y mESCs were transfected with the indicated RNF12 constructs and lysates treated with λ-phosphatase and analyzed by phos-tag immunoblotting for RNF12. Unphosphorylated recombinant RNF12 is included as a control. […] RNF12 4xSA is included as an unphosphorylated control. […] (F) Phosphorylated peptides detected by mass spectrometry following in vitro phosphorylation of RNF12 by SRPK1. pS, phospho-serine. (G) Autoradiography of RNF12 WT or S212A/S214A/S227A/S229A (4xSA) following a radioactive kinase reaction with SRPK1, SRPK2, or SRPK3. RNF12 protein is detected by Coomassie staining. (H) Srpk1^+/+ and Srpk1^−/− mESCs were transfected with control or SRPK2 siRNA and RNF12 SR-motif phosphorylation analyzed by phos-tag immunoblotting for RNF12. SRPK2, SRPK1, RNF12, and ERK1/2 levels were determined by immunoblotting. Related to Figure S2; Tables S3 and S4.
All compounds were diluted in DMSO and mESCs treated with 10 μM inhibitor for 4 h prior lysis unless indicated otherwise. […] For proteasome inhibition mESCs were treated with 10 μM MG132 (Sigma Aldrich) for 6 h. All chemicals are listed in the Key Resource Table.
Phos-tag analyses were performed by loading protein samples containing 10 mM MnCl2 in 8% polyacrylamide gels containing 50 μM Phos-tag reagent (MRC-PPU reagents and services) and 0.1 mM MnCl2. After electrophoresis, gels were washed three times for 10 mins in Transfer buffer (48 mM Tris, 39 mM Glycine, 20% Methanol) supplemented with 20 mM EDTA. Proteins were then transferred to Nitrocellulose membranes, blocked and probed with the indicated antibodies. All protein signals were quantified using Image Studio (LI-COR Biosciences) or Image Lab software (Bio-Rad). Primary antibodies are listed in the Key Resource Table. […]
SR-motif phosphorylation of HA-immunoprecipitated RNF12 analysed by phos-tag immunoblotting.
HA-RNF12 levels are shown as a control. Fully phosphorylated (4-P) and unphosphorylated (0-P) RNF12 SR-motif is indicated by open (○) and closed (●) circles respectively.
Data are represented as mean ± S.D. (n=3). (C) RNF12 expressing mESCs were treated with 10 […]
immunoblotting. HA-RNF12 and ERK1/2 levels are shown as a control. (D) RNF12 expressing […]
5 h (+ wash-out). RNF12 phosphorylation was analysed via phos-tag immunoblotting. ERK1/2 levels are shown as a loading control. (E) Multiple Srpk1-/- and Srpk2-/- mESC clones were […]

## CCc1cc2c(cc1-c1cccc(S(=O)(=O)F)c1)C(C)(C)c1[nH]c3cc(C#N)ccc3c1C2=O [SRPKIN-1]
[1]
  Foxp1 exon 16b-exon 16 inclusion: little effect
RNF12 SR-motif; 10 μM, HA-RNF12 immunoprecipitates, phos-tag and phospho-Ser214 multiplex immunoblot
  Ser214 phosphorylation of the high-mobility form of RNF12: completely dephosphorylated
RNF12 SR-motif
  concentration leading to RNF12 SR-motif de-phosphorylation (as low as): 1 µM
